Assay: Spectroscopic measurements (absorption, emission, quantum yield, extinction coefficient)
Format: physicochemical
[1] = BDNCA library, difference emission minus absorption
[2] = BDNCA library, extinction coefficient; in M-1 cm-1 (unit assumed)
[3] = BDNCA library, fluorescence emission
[4] = absorption maximum, BDNCA library
[5] = difference of emission and absorption maxima
[6] = extinction coefficient, BDNCA library; in M-1 cm-1 (unit assumed)
[7] = fluorescence emission maximum, BDNCA library

SMILES	Qunt. Yield (BDNCA library)	Abs (BDNCA library, absorption)	Flu-Abs [1]	ε [2]	Flu [3]	Abs [4]	Flu-Abs [5]	ε [6]	Flu [7]	Qunt. Yield (quantum yield, BDNCA library)
COc1cc(/C=C/C2=[N+]3C(=C(c4ccc(NC(=O)CCl)cc4)c4cccn4[B-]3(F)F)C(C)=C2)cc(Cl)c1OC [BDNCA-294]	0.14	560 nm	21	63,158	581	–	–	–	–	–
COc1cccc(Oc2ccccc2/C=C/C2=[N+]3C(=C(c4ccc(NC(=O)CCl)cc4)c4cccn4[B-]3(F)F)C(C)=C2)c1 [BDNCA-298]	0.14	558 nm	23	67,277	581	–	–	–	–	–
CC1=CC(/C=C/c2cccc(Oc3ccc(Cl)c(Cl)c3)c2)=[N+]2C1=C(c1ccc(NC(=O)CCl)cc1)c1cccn1[B-]2(F)F [BDNCA-299]	0.09	556 nm	19	49,703	575	–	–	–	–	–
CC1=CC(/C=C/c2ccc(Oc3ccc(C)cc3)cc2)=[N+]2C1=C(c1ccc(NC(=O)CCl)cc1)c1cccn1[B-]2(F)F [BDNCA-300]	0.21	563 nm	27	102,151	590	–	–	–	–	–
COc1cc2ccccc2c(/C=C/C2=[N+]3C(=C(c4ccc(NC(=O)CCl)cc4)c4cccn4[B-]3(F)F)C(C)=C2)c1OC [BDNCA-301]	0.24	567 nm	36	85,950	603	–	–	–	–	–
CC1=CC(/C=C/c2cccc(I)c2)=[N+]2C1=C(c1ccc(NC(=O)CCl)cc1)c1cccn1[B-]2(F)F [BDNCA-303]	0.12	556 nm	19	70,847	575	–	–	–	–	–
Cc1cc(/C=C/c2ccc(Oc3ccc(C=O)cc3)cc2)n2c1C(c1ccc(NC(=O)CCl)cc1)=C1C=CC=[N+]1[B-]2(F)F [BDNCA-304]	0.02	561 nm	25	18,673	586	–	–	–	–	–
COc1cc(F)c(/C=C/c2cc(C)c3n2[B-](F)(F)[N+]2=CC=CC2=C3c2ccc(NC(=O)CCl)cc2)cc1OC [BDNCA-305]	0.22	568 nm	38	153,227	606	–	–	–	–	–
Cc1cc(/C=C/c2ccc(F)c(Oc3ccccc3)c2)n2c1C(c1ccc(NC(=O)CCl)cc1)=C1C=CC=[N+]1[B-]2(F)F [BDNCA-311]	–	–	–	–	–	555 nm	20	57,117	575	0.09
COc1cccc(/C=C/C2=[N+]3C(=C(c4ccc(NC(=O)CCl)cc4)c4cccn4[B-]3(F)F)C(C)=C2)c1F [BDNCA-314]	–	–	–	–	–	554 nm	21	52,998	575	0.11
CC1=CC(/C=C/c2cccc([N+](=O)[O-])c2O)=[N+]2C1=C(c1ccc(NC(=O)CCl)cc1)c1cccn1[B-]2(F)F [BDNCA-315]	–	–	–	–	–	655 nm	–	15,652	weak	weak
CCOc1cccc(/C=C/C2=[N+]3C(=C(c4ccc(NC(=O)CCl)cc4)c4cccn4[B-]3(F)F)C(C)=C2)c1OCC [BDNCA-317]	–	–	–	–	–	557 nm	22	45,858	579	0.08
Cc1cc(/C=C/c2cc(F)ccc2O)n2c1C(c1ccc(NC(=O)CCl)cc1)=C1C=CC=[N+]1[B-]2(F)F [BDNCA-318]	–	–	–	–	–	564 nm	25	18,398	589	0.02
Cc1cc(/C=C/c2ccc(-c3ccccc3)o2)n2c1C(c1ccc(NC(=O)CCl)cc1)=C1C=CC=[N+]1[B-]2(F)F [BDNCA-319]	–	–	–	–	–	598 nm	58	54,096	656	0.05
CCOc1c(/C=C/C2=[N+]3C(=C(c4ccc(NC(=O)CCl)cc4)c4cccn4[B-]3(F)F)C(C)=C2)cccc1OC [BDNCA-320]	–	–	–	–	–	557 nm	24	59,588	581	0.10
CC1=CC(/C=C/c2ccc(Oc3ccc(F)cc3)cc2)=[N+]2C1=C(c1ccc(NC(=O)CCl)cc1)c1cccn1[B-]2(F)F [BDNCA-322]	–	–	–	–	–	561 nm	27	67,826	588	0.14
Cc1cc(/C=C/c2ccc3c(c2)OC(F)(F)O3)n2c1C(c1ccc(NC(=O)CCl)cc1)=C1C=CC=[N+]1[B-]2(F)F [BDNCA-332]	–	–	–	–	–	556 nm	19	27,735	575	0.05
CSc1ccccc1/C=C/C1=[N+]2C(=C(c3ccc(NC(=O)CCl)cc3)c3cccn3[B-]2(F)F)C(C)=C1 [BDNCA-333]	–	–	–	–	–	560 nm	26	63,707	586	0.12
COc1ccc(/C=C/C2=[N+]3C(=C(c4ccc(NC(=O)CCl)cc4)c4cccn4[B-]3(F)F)C(C)=C2)cc1C [BDNCA-335]	–	–	–	–	–	569 nm	33	41,739	602	0.08

SMILES	Qunt. Yield (BDNCA library)	Abs (BDNCA library, absorption)	Flu-Abs [1]	ε [2]	Flu [3]	Abs [4]	Flu-Abs [5]	ε [6]	Flu [7]	Qunt. Yield (quantum yield, BDNCA library)
CCOc1ccccc1/C=C/c1cc(C)c2n1[B-](F)(F)[N+]1=CC=CC1=C2c1ccc(NC(=O)CCl)cc1 [BDNCA-336]	–	–	–	–	–	562 nm	23	63,982	585	0.12
CC1=CC(/C=C/c2c3ccccc3c(C)c3ccccc23)=[N+]2C1=C(c1ccc(NC(=O)CCl)cc1)c1cccn1[B-]2(F)F [BDNCA-340]	–	–	–	–	–	532 nm	17	36,247	549	0.04
CC1=CC(/C=C/c2ccccc2Oc2ccc(F)cc2)=[N+]2C1=C(c1ccc(NC(=O)CCl)cc1)c1cccn1[B-]2(F)F [BDNCA-341]	–	–	–	–	–	558 nm	22	58,764	580	0.10
CC1=CC(/C=C/c2cc(C)c(C)cc2C)=[N+]2C1=C(c1ccc(NC(=O)CCl)cc1)c1cccn1[B-]2(F)F [BDNCA-343]	–	–	–	–	–	562 nm	26	28,284	588	0.06
CC1=CC(/C=C/c2cccc(OC(F)(F)C(F)F)c2)=[N+]2C1=C(c1ccc(NC(=O)CCl)cc1)c1cccn1[B-]2(F)F [BDNCA-345]	–	–	–	–	–	621 nm	–	12,082	weak	weak
Cc1cc(/C=C/c2cc(OC(F)(F)F)ccc2O)n2c1C(c1ccc(NC(=O)CCl)cc1)=C1C=CC=[N+]1[B-]2(F)F [BDNCA-346]	–	–	–	–	–	561 nm	23	16,476	584	0.02
COc1ccc(/C=C/C2=[N+]3C(=C(c4ccc(NC(=O)CCl)cc4)c4cccn4[B-]3(F)F)C(C)=C2)c(OC)c1C [BDNCA-347]	–	–	–	–	–	569 nm	35	34,874	604	0.08
CC1=CC(/C=C/c2cccc(C)c2C)=[N+]2C1=C(c1ccc(NC(=O)CCl)cc1)c1cccn1[B-]2(F)F [BDNCA-349]	–	–	–	–	–	556 nm	22	36,247	578	0.03
COc1ccc(/C=C/C2=[N+]3C(=C(c4ccc(NC(=O)CCl)cc4)c4cccn4[B-]3(F)F)C(C)=C2)cc1[N+](=O)[O-] [BDNCA-350]	–	–	–	–	–	560 nm	21	34,874	581	0.07
CC1=CC(/C=C/c2ncc[nH]2)=[N+]2C1=C(c1ccc(NC(=O)CCl)cc1)c1cccn1[B-]2(F)F [BDNCA-353]	–	–	–	–	–	570 nm	44	15,652	614	0.01
Cc1cc(/C=C/c2ccc(SC(F)(F)F)cc2)n2c1C(c1ccc(NC(=O)CCl)cc1)=C1C=CC=[N+]1[B-]2(F)F [BDNCA-363]	–	–	–	–	–	558 nm	18	41,190	576	0.08
CC1=CC(/C=C/c2ccccc2OC(F)(F)F)=[N+]2C1=C(c1ccc(NC(=O)CCl)cc1)c1cccn1[B-]2(F)F [BDNCA-365]	–	–	–	–	–	553 nm	16	45,584	569	0.07
COc1cc(O)c(/C=C/C2=[N+]3C(=C(c4ccc(NC(=O)CCl)cc4)c4cccn4[B-]3(F)F)C(C)=C2)c(OC)c1 [BDNCA-366]	–	–	–	–	–	579 nm	50	38,444	629	0.02
CC1=CC(/C=C/c2cc3ccccc3o2)=[N+]2C1=C(c1ccc(NC(=O)CCl)cc1)c1cccn1[B-]2(F)F [BDNCA-368]	–	–	–	–	–	578 nm	23	21,968	601	0.03
CC1=CC(/C=C/c2ccc(C)cc2C)=[N+]2C1=C(c1ccc(NC(=O)CCl)cc1)c1cccn1[B-]2(F)F [BDNCA-370]	–	–	–	–	–	507 nm	78	34,050	585	0.08
COc1ccc(/C=C/c2cc(C)c3n2[B-](F)(F)[N+]2=CC=CC2=C3c2ccc(NC(=O)CCl)cc2)c(Cl)c1OC [BDNCA-372]	–	–	–	–	–	565 nm	29	69,474	594	0.13
CC1=CC(/C=C/c2c[nH]c3ccccc23)=[N+]2C1=C(c1ccc(NC(=O)CCl)cc1)c1cccn1[B-]2(F)F [BDNCA-375]	–	–	–	–	–	591 nm	63	21,968	654	0.02
Cc1cc(/C=C/c2ccc(N(C)C)c3ccccc23)n2c1C(c1ccc(NC(=O)CCl)cc1)=C1C=CC=[N+]1[B-]2(F)F [BDNCA-377]	–	–	–	–	–	590 nm	–	58,215	weak	weak

Reference: patent publication US9423396B2, “Bodipy structure fluorescence probes for diverse biological applications” (National University of Singapore, priority 2011, dated 2016)
